Assay [1] has as its target T1, human CTPS1 (Homo sapiens, UniProt P17812).
T1 construct: purchased Proteros biostructures GmbH
T1 sequence (P17812 1-591): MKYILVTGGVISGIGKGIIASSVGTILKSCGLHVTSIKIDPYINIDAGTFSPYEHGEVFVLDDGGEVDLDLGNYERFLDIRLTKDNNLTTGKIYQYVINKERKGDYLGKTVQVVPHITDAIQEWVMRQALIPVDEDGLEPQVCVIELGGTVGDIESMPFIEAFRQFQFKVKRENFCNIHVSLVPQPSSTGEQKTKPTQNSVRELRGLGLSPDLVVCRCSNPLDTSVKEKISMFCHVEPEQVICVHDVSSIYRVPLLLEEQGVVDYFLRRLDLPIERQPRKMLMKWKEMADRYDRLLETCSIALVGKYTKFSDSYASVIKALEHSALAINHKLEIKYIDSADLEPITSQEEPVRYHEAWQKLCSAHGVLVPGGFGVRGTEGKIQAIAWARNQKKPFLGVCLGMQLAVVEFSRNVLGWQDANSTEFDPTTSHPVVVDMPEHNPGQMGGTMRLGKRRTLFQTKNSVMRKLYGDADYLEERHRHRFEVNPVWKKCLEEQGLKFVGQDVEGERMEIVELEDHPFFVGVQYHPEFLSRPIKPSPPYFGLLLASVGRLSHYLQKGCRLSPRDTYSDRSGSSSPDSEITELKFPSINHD
Briefly: Human CTPS1 enzyme inhibition, ADP-Glo Max assay. To be noted: human full length CTPS1, read-out: CTPS1 (Human CTPS1 Enzyme Inhibition data grouped by potency range, IC50). Format: biochemical. The procedure, abridged: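 Full-length C-terminal FLAG-His-tagged protein in 50 mM Tris pH 8.0, 10 mM MgCl2, 0.01% Tween-20 and 2 mM L-cysteine, preincubated with compound for 10 min at 25 °C. The substrate mix held ATP 0.31 mM, GTP 0.034 mM, UTP 0.48 mM and L-glutamine 0.186 mM, and the reaction ran within its linear phase. ADP was read by ADP-Glo Max luminescence; IC50 from the % inhibition curve.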
(In general: In ADP-Glo the light output rises with the ADP produced.)

Assay [2] addresses T1, human CTPS1. Nature of the assay: RapidFire/MS-based enzyme selectivity assay, human CTPS1. The format is biochemical. To be noted: RapidFire/MS IC50s, human CTPS1 versus CTPS2. As for the experimental part:
Biological Example 2—RapidFire/MS-Based Enzyme Selectivity Assays
Human CTPS1 Versus CTPS2 Selectivity Assessment by RapidFire/MS Analysis.
The enzyme inhibitory activities against each target isoform of interest were determined for the compounds of the invention using an optimised RapidFire high-throughput mass spectrometry (RF/MS) assay format. RF/MS assays for both human CTPS1 and CTPS2 were performed in assay buffer consisting of 50 mM HEPES (Merck), 20 mM MgCl2, 5 mM KCl, 1 mM DTT, 0.01% Tween-20, pH to 8.0 accordingly. All reagents were from Sigma-Aldrich unless specified otherwise. Human full-length active C-terminal FLAG-His-tag CTPS1 (UniProtKB-P17812, CTPS[1-591]-[…]) was obtained from Proteros biostructures GmbH. Human full length active C-terminal FLAG-His-Avi tagged CTPS2 (UniProtKB-Q9NRF8, CTPS2 [1-586]-[…]) was obtained from Harker Bio.
Human CTPS (1 or 2) protein was prepared in 1× assay buffer to the final working protein concentration required for the reaction. A 2 uL volume per well of 2×CTPS (1 or 2) protein was mixed with 40 nL of compound using acoustic (ECHO) delivery and incubated for 10 minutes at 25° C. Each isoform enzymatic reaction was subsequently initiated by addition of 2 uL per well of a 2× substrate mix in assay buffer. For hCTPS1: ATP (0.3 mM), UTP (0.2 mM), GTP (0.07 mM) and L-glutamine (0.1 mM). For hCTPS2: ATP (0.1 mM), UTP (0.04 mM), GTP (0.03 mM) and L-glutamine (0.1 mM). Each mixture was incubated for an appropriate amount of time per isoform within the determined linear phase of the reaction at 25° C. A 60 uL volume of stop solution (1% formic acid with 0.5 uM ^13C9-^15N3-CTP in H2O) was added and the plate immediately heat-sealed and centrifuged for 10 minutes at 4,000 rpm. Following centrifugation, plates were loaded onto the Agilent RapidFire microfluidic solid phase extraction system coupled to an API4000 triple quadrupole mass spectrometer (RF/MS) for analysis.
In all cases, the enzyme converts UTP to CTP. […] Readout for data analysis was calculated as the ratio between the peak area of the product CTP and the internal standard ^13C9-^15N3-CTP. […]
(R=ratio/readout, P=product signal area, IS=internal standard signal area) […]
(I=Inhibition, Rneg=median of negative control readout values, Rpos=median of positive control readout values, Rsample=sample readout value)
Percentage inhibition was then plotted against compound concentration, and the 50% inhibitory concentration ([…]) was determined from the resultant concentration-response curve.
Fold selectivity between CTPS1 and CTPS2 was subsequently calculated according to the following equation: […]

Molecules are shown by their SMILES.

By IC50 is commonly meant the concentration needed to halve the response being measured. Take `CCOc1cncc(-c2ccc(C(=O)NC(CC)c3csc(NS(=O)(=O)C4CC4)n3)c(F)c2)n1` (single isomer, unassigned) [Example R71, N-(1-(2-(cyclopropanesulfonamido)thiazol-4-yl)propyl)-4-(6-ethoxypyrazin-2-yl)-2-fluorobenzamide]: the IC50 on human CTPS1 [1] is under 100 nM. On human CTPS1 [2], the “Selectivity (fold selectivity between CTPS1 and CTPS2)” value is reported as “+++ (>60 fold (+++))”.

`CCOc1cncc(-c2ccc(C(=O)NC(CCOC)c3csc(NS(=O)(=O)C4CC4)n3)c(F)c2)n1` (single isomer, unassigned) [Example R92, N-(1-(2-(cyclopropanesulfonamido)thiazol-4-yl)-3-methoxypropyl)-4-(6-ethoxypyrazin-2-yl)-2-fluorobenzamide]: the IC50 at human CTPS1 [1] is under 100 nM. Also, at human CTPS1 [2], the “Selectivity (fold selectivity between CTPS1 and CTPS2)” value is reported as “+++ (>60 fold (+++))”.

As for `CCOc1cncc(-c2ccc(C(=O)NC(CCOC)c3csc(NS(=O)(=O)C4CC4)n3)c(F)c2)n1` (single isomer, unassigned) [Example R93, N-(1-(2-(cyclopropanesulfonamido)thiazol-4-yl)-3-methoxypropyl)-4-(6-ethoxypyrazin-2-yl)-2-fluorobenzamide], the “Selectivity (fold selectivity between CTPS1 and CTPS2)” value on human CTPS1 [2] was “+++ (>60 fold (+++))”.

`CCOc1cncc(-c2ccc(C(=O)NC(C)(C)c3csc(NS(=O)(=O)C4CC4)n3)c(F)c2)n1` [Example R6, N-(2-(2-(cyclopropanesulfonamido)thiazol-4-yl)propan-2-yl)-4-(6-ethoxypyrazin-2-yl)-2-fluorobenzamide]: the IC50 at human CTPS1 [1] was under 100 nM. The “Selectivity (fold selectivity between CTPS1 and CTPS2)” value on human CTPS1 [2] was “++ (>30-60 fold (++))”.

For the compound `CCOc1cncc(-c2ccc(C(=O)NC3(c4csc(NS(=O)(=O)C5CC5)n4)CC3)nc2)n1` [Example R80, N-(1-(2-(cyclopropanesulfonamido)thiazol-4-yl)cyclopropyl)-5-(6-ethoxypyrazin-2-yl)picolinamide], the IC50 at human CTPS1 [1] is under 100 nM.

For `O=C(NC1(c2csc(NS(=O)(=O)C3CC3)n2)CC1)c1ccc(-c2cccnc2)cc1` [Example R81, N-(1-(2-(cyclopropanesulfonamido)thiazol-4-yl)cyclopropyl)-4-(pyridin-3-yl)benzamide], the IC50 at human CTPS1 [1] lay in the range of 100 to 1000 nM.

As to `CCOc1cncc(-c2ccc(C(=O)NC3(c4csc(NS(=O)(=O)C5CC5)n4)CC3)c(F)c2)n1` [Example R82, N-(1-(2-(cyclopropanesulfonamido)thiazol-4-yl)cyclopropyl)-4-(6-ethoxypyrazin-2-yl)-2-fluorobenzamide], on human CTPS1 [1], the IC50 was under 100 nM.

Consider `Cc1cc(-c2cncc(C(F)(F)F)n2)ccc1C(=O)NC1(c2csc(NS(=O)(=O)C3CC3)n2)CC1` [Example R83, N-(1-(2-(cyclopropanesulfonamido)thiazol-4-yl)cyclopropyl)-2-methyl-4-(6-(trifluoromethyl)pyrazin-2-yl)benzamide], for which the concentration for half-maximal inhibition (IC50) on human CTPS1 [1] was under 100 nM.

For `O=C(NC1(c2csc(NS(=O)(=O)C3CC3)n2)CC1)c1ccc(-c2cncc(C(F)(F)F)n2)cc1` [Example R84, N-(1-(2-(cyclopropanesulfonamido)thiazol-4-yl)cyclopropyl)-4-(6-(trifluoromethyl)pyrazin-2-yl)benzamide], the IC50 on human CTPS1 [1] is under 100 nM.

Regarding `COCCC(NC(=O)c1ccc(-c2cncc(F)c2)cc1)c1csc(NS(=O)(=O)C2CC2)n1` (stereo not shown) [Example R85, N-(1-(2-(cyclopropanesulfonamido)thiazol-4-yl)-3-methoxypropyl)-4-(5-fluoropyridin-3-yl)benzamide], the IC50 at human CTPS1 [1] fell in the range of 100 to 1000 nM.

For the compound `CCc1cncc(-c2ccc(C(=O)NC(CCOC)c3csc(NS(=O)(=O)C4CC4)n3)c(F)c2)n1` (stereo not shown) [Example R86, N-(1-(2-(cyclopropanesulfonamido)thiazol-4-yl)-3-methoxypropyl)-4-(6-ethylpyrazin-2-yl)-2-fluorobenzamide], at human CTPS1 [1], the IC50 was 100 to 1000 nM.

For the compound `COCCC(NC(=O)c1ccc(-c2cncc(C(F)(F)F)n2)cc1F)c1csc(NS(=O)(=O)C2CC2)n1` (stereo not shown) [Example R87, N-(1-(2-(cyclopropanesulfonamido)thiazol-4-yl)-3-methoxypropyl)-2-fluoro-4-(6-(trifluoromethyl)pyrazin-2-yl)benzamide], on human CTPS1 [1], the IC50 was in the range of 100 to 1000 nM.

On to `CCOc1cncc(-c2ccc(C(=O)NC(CCOC)c3csc(NS(=O)(=O)C4CC4)n3)c(F)c2)n1` (stereo not shown) [Example R88, N-(1-(2-(cyclopropanesulfonamido)thiazol-4-yl)-3-methoxypropyl)-4-(6-ethoxypyrazin-2-yl)-2-fluorobenzamide], for which the IC50 on human CTPS1 [1] was in the range of 100 to 1000 nM.

With `COCCC(NC(=O)c1ccc(-c2cncc(OC(C)C)n2)cc1F)c1csc(NS(=O)(=O)C2CC2)n1` (stereo not shown) [Example R89, N-(1-(2-(cyclopropanesulfonamido)thiazol-4-yl)-3-methoxypropyl)-2-fluoro-4-(6-isopropoxypyrazin-2-yl)benzamide], the IC50 on human CTPS1 [1] was under 100 nM.

`CCOc1cncc(-c2ccc(C(=O)NC(CCOC)c3csc(NS(=O)(=O)C4CC4)n3)cc2)n1` (stereo not shown) [Example R90, N-(1-(2-(cyclopropanesulfonamido)thiazol-4-yl)-3-methoxypropyl)-4-(6-ethoxypyrazin-2-yl)benzamide]: at human CTPS1 [1], the IC50 was under 100 nM.

For the compound `CCOc1cncc(-c2ccc(C(=O)NC(C)c3csc(NS(=O)(=O)C4CC4)n3)c(F)c2)n1` (stereo not shown) [Example R91, N-(1-(2-(cyclopropanesulfonamido)thiazol-4-yl)ethyl)-4-(6-ethoxypyrazin-2-yl)-2-fluorobenzamide], the IC50 at human CTPS1 [1] is under 100 nM.

These data come from patent US11505547B2, “Compounds” (STEP PHARMA S.A.S., priority 2017, dated 2022).
